Test results taken from ChEMBL document CHEMBL3832761, “MMV Pathogen Box Bioactivity Data” (2017).
Converted amounts (≈) assume the structure as drawn.

Columns and labels:
[1] = system: Plasmodium falciparum; assay: Antimalarial activity: Asexual Blood Stage Plasmodium falciparum 3D7 IC50 (uM); type: functional, organism-based
[2] = system: Plasmodium berghei; assay: Antimalarial activity: Liver Stage Plasmodium berghei sporozoite Luciferase assay IC50 (uM); type: functional, organism-based
[3] = system: Plasmodium falciparum; assay: Antimalarial activity: Gametocytes Plasmodium falciparum NF54 Gametocytes Stage V IC50 (uM); type: functional, organism-based
[4] = system: HepG2; assay: HepG2 CC50 (uM) Cytotoxicity; type: functional; settings: Homo sapiens
[5] = system: Plasmodium falciparum; assay: Antimalarial activity: Gametocytes Plasmodium falciparum NF54 Gametocytes Stage V: inhibition at 10 uM (%); type: functional
[6] = system: Plasmodium falciparum; assay: Antimalarial activity: Asexual Blood Stage Plasmodium falciparum Dd2 IC50 (uM); type: functional, organism-based
[7] = system: HepG2; assay: Cytotoxicity data HepG2 CC20 (uM); type: functional
[8] = system: Plasmodium berghei; assay: Antimalarial activity: Liver Stage Plasmodium berghei sporozoite Luciferase assay: inhibition at 10 uM (%); type: functional
[9] = system: Mycobacterium tuberculosis; assay: AntiMycobacterium tuberculosis activity 2-week Alamar Blue 7H9/ADC/Tw MIC (uM); type: functional; settings: 336 h
[10] = system: Mycobacterium tuberculosis; assay: AntiMycobacterium tuberculosis activity 1-week 7H9/DPPC/cholesterol/BSA/Tx MIC (uM); type: functional; settings: 168 h
[11] = system: Mycobacterium tuberculosis; assay: AntiMycobacterium tuberculosis activity 2-week 7H9/glucose/BSA/Tx MIC (uM); type: functional; settings: 336 h
[12] = system: Mycobacterium tuberculosis; assay: AntiMycobacterium tuberculosis activity 2-week GAST/Fe MIC (uM); type: functional; settings: 336 h
[13] = system: Mycobacterium tuberculosis; assay: AntiMycobacterium tuberculosis activity day 21 MIC99 in 7H9/2.5mM butyrate/pH6/0.1mM nitrite MIC99 (uM); type: functional; settings: 504 h
[14] = system: Mycobacterium tuberculosis; assay: AntiMycobacterium tuberculosis activity 2-week Alamar Blue 7H9/cholesterol/BSA/Tx MIC (uM); type: functional; settings: 336 h
[15] = system: Mycobacterium tuberculosis; assay: AntiMycobacterium tuberculosis activity 2-week 7H9/ADC/Tw MIC (uM); type: functional; settings: 336 h
[16] = system: Mycobacterium tuberculosis; assay: (§1) AntiMycobacterium tuberculosis activity day 10 in 7H9/2.5mM butyrate/pH6/0.1mM nitrite MIC90 (uM); type: functional; settings: 240 h
[17] = system: Mycobacterium tuberculosis; assay: AntiMycobacterium tuberculosis activity 1-week GAST/Fe MIC (uM); type: functional; settings: 168 h
[18] = system: Mycobacterium tuberculosis; assay: AntiMycobacterium tuberculosis activity 1-week 7H9/cholesterol/BSA/Tx MIC (uM); type: functional; settings: 168 h
[19] = system: Mycobacterium tuberculosis; assay: AntiMycobacterium tuberculosis activity day 21 in 7H9/2.5mM butyrate/pH6/0.1mM nitrite MIC90 (uM); type: functional; settings: 504 h
[20] = system: Mycobacterium tuberculosis; assay: AntiMycobacterium tuberculosis activity 2-week 7H9/DPPC/cholesterol/BSA/Tx MIC (uM); type: functional; settings: 336 h
[21] = system: Mycobacterium tuberculosis; assay: AntiMycobacterium tuberculosis activity 1-week 7H9/glucose/BSA/Tx MIC (uM); type: functional; settings: 168 h
[22] = system: Mycobacterium tuberculosis; assay: as §1; type: functional; settings: 240 h; remark: listed apart in the source
[23] = system: HepG2; assay: HepG2 galactose CC50 (uM) Cytotoxicity; type: functional
[24] = system: HepG2; assay: HepG2 glucose CC50 (uM) Cytotoxicity; type: functional
[25] = system: Mycobacterium tuberculosis; assay: AntiMycobacterium tuberculosis activity 1-week 7H9/ADC/Tw MIC (uM); type: functional; settings: 168 h
[26] = system: HepG2; assay: HepG2 inhibition at 10 uM (%) Cytotoxicity; type: functional; settings: Homo sapiens

Row | Structure (SMILES) | IC50 [1] | IC50 [3] | MIC [9] | MIC [10] | MIC [11] | MIC [12] | MIC [13] | MIC [14] | MIC [15] | MIC90 [16] | MIC [17] | MIC [18] | MIC90 [19] | MIC [20] | MIC [21] | MIC90 [22] | CC50 ([23]; Homo sapiens, HepG2) | CC50 ([24]; Homo sapiens, HepG2) | MIC [25] | other results
1 | c1ccc(-c2cc(N3CCCCC3)c3ccccc3n2)nc1 | > 2 µM | 0.51 µM | – | – | – | – | – | – | – | – | – | – | – | – | – | – | – | – | – | IC50 [2]: 9.7 µM; CC50 [4]: > 10 µM; Inhibition [5]: 93%; IC50 [6]: > 2 µM; CC20 [7]: 22.9 µM; Inhibition [8]: 92%
2 | O=C(N[C@H](Cc1ccccc1)C(=O)Nc1ccccc1N1CCOCC1)c1cccs1 | – | – | 1.2 µM (≈ 0.523 µg/mL) | 2.3 µM (≈ 1 µg/mL) | 4.7 µM (≈ 2.05 µg/mL) | 0.15 µM (≈ 0.0653 µg/mL) | > 50 µM | 3.13 µM (≈ 1.36 µg/mL) | 1.2 µM (≈ 0.523 µg/mL) | > 50 µM | 0.15 µM (≈ 0.0653 µg/mL) | 1.56 µM (≈ 0.679 µg/mL) | 12.5 µM (≈ 5.44 µg/mL) | 2.3 µM (≈ 1 µg/mL) | 3.13 µM (≈ 1.36 µg/mL) | 6.25 µM (≈ 2.72 µg/mL) | > 50 µM | > 50 µM | 1.2 µM (≈ 0.523 µg/mL) | –
3 | Cc1ccc2nc(C)c(-c3ccn(Cc4ccccc4)n3)n2c1 | – | – | 19 µM (≈ 5.75 µg/mL) | 12.5 µM (≈ 3.78 µg/mL) | ≥ 50 µM | 0.78 µM (≈ 0.236 µg/mL) | > 50 µM | 4.7 µM (≈ 1.42 µg/mL) | > 50 µM | > 50 µM | 0.78 µM (≈ 0.236 µg/mL) | 9.4 µM (≈ 2.84 µg/mL) | 50 µM (≈ 15.1 µg/mL) | 37 µM (≈ 11.2 µg/mL) | 50 µM (≈ 15.1 µg/mL) | 6.25 µM (≈ 1.89 µg/mL) | 36.1 µM | 35.5 µM | 50 µM (≈ 15.1 µg/mL) | CC50 [23]: 28.6 µM; CC50 [24]: > 50 µM
4 | CN1CCN(c2cc(-c3ccc(F)cc3)nc(-c3ccncc3)n2)CC1 | – | – | 12.5 µM (≈ 4.37 µg/mL) | 6.25 µM (≈ 2.18 µg/mL) | 9.4 µM (≈ 3.28 µg/mL) | 12.5 µM (≈ 4.37 µg/mL) | > 50 µM | 6.25 µM (≈ 2.18 µg/mL) | 25 µM (≈ 8.74 µg/mL) | > 50 µM | 19 µM (≈ 6.64 µg/mL) | 12.5 µM (≈ 4.37 µg/mL) | 12.5 µM (≈ 4.37 µg/mL) | 6.25 µM (≈ 2.18 µg/mL) | 12.5 µM (≈ 4.37 µg/mL) | 6.25 µM (≈ 2.18 µg/mL) | > 50 µM | > 50 µM | 37 µM (≈ 12.9 µg/mL) | –
5 | Cc1cc(C)nc(-n2nc(C)cc2Nc2ccccc2)n1 | > 2 µM | 0.22 µM | – | – | – | – | – | – | – | – | – | – | – | – | – | – | – | – | – | inhibition at 10 µM [26]: 7%
6 | COc1cccc(NC(=O)c2c(NC(=O)c3cccnc3)sc3c2CCC3)c1 | – | – | 12.5 µM (≈ 4.92 µg/mL) | 9.4 µM (≈ 3.7 µg/mL) | 6.25 µM (≈ 2.46 µg/mL) | 12.5 µM (≈ 4.92 µg/mL) | > 50 µM | > 50 µM | 12.5 µM (≈ 4.92 µg/mL) | > 50 µM | 9.4 µM (≈ 3.7 µg/mL) | 12.5 µM (≈ 4.92 µg/mL) | > 50 µM | 50 µM (≈ 19.7 µg/mL) | 4.7 µM (≈ 1.85 µg/mL) | 3.12 µM (≈ 1.23 µg/mL) | > 50 µM | > 50 µM | 12.5 µM (≈ 4.92 µg/mL) | –
